Source: patent publication US20070015818A1, “Cyclic sulfone containing retroviral protease inhibitors” (G.D. Searle & Co. (now G.D. Searle, LLC), priority 1995, published 2007)

Test system: HIV
Experiment: EC50 of Table 1 (antiviral activity, method not described)
Assay type: cell-based
Conditions: Human immunodeficiency virus 1

EC50 | Compound
295 nM | CC(C)CCN(C[C@@H](O)[C@H](Cc1ccccc1)NC(=O)C1CCCS(=O)(=O)C1)C(=O)NC(C)(C)Cn1ccnc1 (stereo partly drawn) [Example 4a]
12 nM | CC(C)(C)NC(=O)[C@@H]1C[C@@H]2CCCC[C@@H]2CN1C[C@@H](O)[C@H](Cc1ccccc1)NC(=O)C1CCCS(=O)(=O)C1 (stereo partly drawn) [Example 7]
19 nM | CC(C)CCN(C[C@@H](O)[C@H](Cc1ccccc1)NC(=O)C1CCCS(=O)(=O)C1)S(=O)(=O)c1ccccc1 (stereo partly drawn) [Example 8]
